Measured values as given in article PMC10165273, “Itch receptor MRGPRX4 interacts with the receptor activity–modifying proteins” (The Journal of Biological Chemistry, 2023).
Like-named read-outs stand apart in the source and are kept apart here.

Target: T1, MRGPRX4 (Homo sapiens, UniProt Q96LA9)
T1 construct: expressed in transfected cells; host or cells: HEK293T
Assay: IP1 accumulation HTRF assay, MRGPRX4;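 for IP1 accumulation, dose-response (Figure 1a): 0% is unstimulated mock-transfected cells and 100% is fully stimulated MRGPRX4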
Type: cell-based
Conditions: 2 h; for activation at 16 µM: log [agonist] (M) -4.79588; for activation at 3.2 µM: log [agonist] (M) -5.49485; for activation at 0.64 µM: log [agonist] (M) -6.19382; for activation at 0.128 µM: log [agonist] (M) -6.89279; for activation at 0.0256 µM: log [agonist] (M) -7.59176

[1] = SP-FLAG-Nluc-HT7-MRGX4_Tet-GFP10-1D4, read-out: normalized IP1 accumulation
[2] = SP-FLAG-Nluc-HT7-MRGX4_Tet-GFP10-1D4 no dox, read-out: normalized IP1 accumulation

T1 sequence (Q96LA9 whole entry): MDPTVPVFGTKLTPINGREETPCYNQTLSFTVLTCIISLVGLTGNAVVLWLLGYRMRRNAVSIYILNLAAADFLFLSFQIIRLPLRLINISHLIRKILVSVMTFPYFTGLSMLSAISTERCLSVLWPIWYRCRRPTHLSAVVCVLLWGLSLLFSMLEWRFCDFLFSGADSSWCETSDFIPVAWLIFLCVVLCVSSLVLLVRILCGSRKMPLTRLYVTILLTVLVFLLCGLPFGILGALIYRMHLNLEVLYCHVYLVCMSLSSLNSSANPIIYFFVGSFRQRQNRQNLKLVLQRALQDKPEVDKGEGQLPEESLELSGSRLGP

CC(C)[C@H]1CC[C@H](C(=O)N[C@H](Cc2ccccc2)C(=O)O)CC1 [Nateglinide]
activation at 100 µM (HA-MRGX4-1D4, log [agonist] (M) -4, read-out: normalized IP1 accumulation): 84.6%
activation at 20 µM (HA-MRGX4-1D4, log [agonist] (M) -4.69897, read-out: normalized IP1 accumulation): 63.4%
activation at 4 µM (HA-MRGX4-1D4, log [agonist] (M) -5.39794, read-out: normalized IP1 accumulation): 30.8%
activation at 0.8 µM (HA-MRGX4-1D4, log [agonist] (M) -6.09691, read-out: normalized IP1 accumulation): 17.7%
activation at […] (HA-MRGX4-1D4, log [agonist] (M) -6.79588, read-out: normalized IP1 accumulation): 12.4%
activation at 0.032 µM (HA-MRGX4-1D4, log [agonist] (M) -7.49485, read-out: normalized IP1 accumulation): 12.5%
activation at 100 µM (MRGPRX4: 0.25pg/cell, log [Nateglinide] (M) -4, Fig S1b, read-out: IP1 accumulation): 76.9%
activation at 20 µM (MRGPRX4: 0.25pg/cell, log [Nateglinide] (M) -4.69897, Fig S1b, read-out: IP1 accumulation): 53.7%
activation at 4 µM (MRGPRX4: 0.25pg/cell, log [Nateglinide] (M) -5.39794, Fig S1b, read-out: IP1 accumulation): 21.2%
activation at […] (MRGPRX4: 0.25pg/cell, log [Nateglinide] (M) -6.79588, Fig S1b, read-out: IP1 accumulation): 3.43%
activation at 0.032 µM (MRGPRX4: 0.25pg/cell, log [Nateglinide] (M) -7.49485, Fig S1b, read-out: IP1 accumulation): 3.78%
activation at 100 µM (MRGPRX4: 0.5pg/cell, log [Nateglinide] (M) -4, Fig S1b, read-out: IP1 accumulation): 92.5%
activation at 20 µM (MRGPRX4: 0.5pg/cell, log [Nateglinide] (M) -4.69897, Fig S1b, read-out: IP1 accumulation): 65.9%
activation at 4 µM (MRGPRX4: 0.5pg/cell, log [Nateglinide] (M) -5.39794, Fig S1b, read-out: IP1 accumulation): 33%
activation at 0.8 µM (MRGPRX4: 0.5pg/cell, log [Nateglinide] (M) -6.09691, Fig S1b, read-out: IP1 accumulation): 11.8%
activation at […] (MRGPRX4: 0.5pg/cell, log [Nateglinide] (M) -6.79588, Fig S1b, read-out: IP1 accumulation): 6.22%
activation at 0.032 µM (MRGPRX4: 0.5pg/cell, log [Nateglinide] (M) -7.49485, Fig S1b, read-out: IP1 accumulation): 5.53%
activation at 100 µM (MRGPRX4: 1pg/cell, log [Nateglinide] (M) -4, Fig S1b, read-out: IP1 accumulation): 92.1%
activation at 20 µM (MRGPRX4: 1pg/cell, log [Nateglinide] (M) -4.69897, Fig S1b, read-out: IP1 accumulation): 75.4%
activation at 4 µM (MRGPRX4: 1pg/cell, log [Nateglinide] (M) -5.39794, Fig S1b, read-out: IP1 accumulation): 37.9%
activation at 0.8 µM (MRGPRX4: 1pg/cell, log [Nateglinide] (M) -6.09691, Fig S1b, read-out: IP1 accumulation): 17.7%
activation at […] (MRGPRX4: 1pg/cell, log [Nateglinide] (M) -6.79588, Fig S1b, read-out: IP1 accumulation): 11.7%
activation at 0.032 µM (MRGPRX4: 1pg/cell, log [Nateglinide] (M) -7.49485, Fig S1b, read-out: IP1 accumulation): 9.46%
activation at 100 µM (MRGPRX4: 2pg/cell, log [Nateglinide] (M) -4, Fig S1b/c, read-out: IP1 accumulation): 100%
activation at 20 µM (MRGPRX4: 2pg/cell, log [Nateglinide] (M) -4.69897, Fig S1b/c, read-out: IP1 accumulation): 88.5%
activation at 4 µM (MRGPRX4: 2pg/cell, log [Nateglinide] (M) -5.39794, Fig S1b/c, read-out: IP1 accumulation): 44.1%
activation at 0.8 µM (MRGPRX4: 2pg/cell, log [Nateglinide] (M) -6.09691, Fig S1b/c, read-out: IP1 accumulation): 21.4%
activation at […] (MRGPRX4: 2pg/cell, log [Nateglinide] (M) -6.79588, Fig S1b/c, read-out: IP1 accumulation): 13.8%
activation at 0.032 µM (MRGPRX4: 2pg/cell, log [Nateglinide] (M) -7.49485, Fig S1b/c, read-out: IP1 accumulation): 12.6%
activation at 100 µM (MRGPRX4: […], log [Nateglinide] (M) -4, Fig S1b, read-out: IP1 accumulation): 68.7%
activation at 20 µM (MRGPRX4: […], log [Nateglinide] (M) -4.69897, Fig S1b, read-out: IP1 accumulation): 45%
activation at 4 µM (MRGPRX4: […], log [Nateglinide] (M) -5.39794, Fig S1b, read-out: IP1 accumulation): 17.6%
activation at 0.8 µM (MRGPRX4: […], log [Nateglinide] (M) -6.09691, Fig S1b, read-out: IP1 accumulation): 5.45%
activation at 0.032 µM (MRGPRX4: […], log [Nateglinide] (M) -7.49485, Fig S1b, read-out: IP1 accumulation): 2.09%
activation at 30 µM (MRGPRX4, nateglinide 30uM, Fig S1d): 86.4%
activation at 100 µM (MRGPRX4, nateglinide 100uM, Fig S1d, read-out: IP1 accumulation): 100%
activation at 100 µM (MRGPRX4 alone, log [Nateglinide] (M) -4, Fig S3a-c, read-out: IP1 accumulation): 100%
activation at 20 µM (MRGPRX4 alone, log [Nateglinide] (M) -4.69897, Fig S3a-c, read-out: IP1 accumulation): 85.7%
activation at 4 µM (MRGPRX4 alone, log [Nateglinide] (M) -5.39794, Fig S3a-c, read-out: IP1 accumulation): 46.2%
activation at 0.8 µM (MRGPRX4 alone, log [Nateglinide] (M) -6.09691, Fig S3a-c, read-out: IP1 accumulation): 23%
activation at […] (MRGPRX4 alone, log [Nateglinide] (M) -6.79588, Fig S3a-c, read-out: IP1 accumulation): 17.8%
activation at 0.032 µM (MRGPRX4 alone, log [Nateglinide] (M) -7.49485, Fig S3a-c, read-out: IP1 accumulation): 17.4%
activation at 30 µM (MRGX4 + Ng, 30uM, U73122 30uM, Fig S1e): 21.3%
activation at 30 µM (MRGX4 + Ng, 30uM, buffer, Fig S1e): 84.5%
activation at 100 µM (MRGX4 + Ng, 100uM, U73122 30uM, Fig S1e, read-out: IP1 accumulation): 31%
activation at 100 µM (MRGX4 + Ng, 100uM, buffer, Fig S1e, read-out: IP1 accumulation): 100%
activation at 80 µM (SP-FLAG-Nluc-HT7-MRGX4_Tet-GFP10-1D4, log [agonist] (M) -4.09691, read-out: normalized IP1 accumulation): 49.1%
activation at 16 µM [1]: 42%
activation at 3.2 µM [1]: 23.5%
activation at 0.64 µM [1]: 12.9%
activation at 0.128 µM [1]: 10.3%
activation at 0.0256 µM [1]: 9.54%
activation at 16 µM [2]: 10.5%
activation at 3.2 µM [2]: 7.88%
activation at 0.64 µM [2]: 7.83%
activation at 0.128 µM [2]: 7.62%
activation at 0.0256 µM [2]: 8.15%
activation at 100 µM (SP-Flag-MRGX4-1D4, log [agonist] (M) -4, read-out: normalized IP1 accumulation): 85.6%
activation at 20 µM (SP-Flag-MRGX4-1D4, log [agonist] (M) -4.69897, read-out: normalized IP1 accumulation): 66.9%
activation at 4 µM (SP-Flag-MRGX4-1D4, log [agonist] (M) -5.39794, read-out: normalized IP1 accumulation): 28.3%
activation at 0.8 µM (SP-Flag-MRGX4-1D4, log [agonist] (M) -6.09691, read-out: normalized IP1 accumulation): 11.8%
activation at […] (SP-Flag-MRGX4-1D4, log [agonist] (M) -6.79588, read-out: normalized IP1 accumulation): 7.74%
activation at 0.032 µM (SP-Flag-MRGX4-1D4, log [agonist] (M) -7.49485, read-out: normalized IP1 accumulation): 8.22%
activation at 100 µM (SP-Flag-MRGX4-GFP10-1D4, log [agonist] (M) -4, read-out: normalized IP1 accumulation): 100%
activation at 20 µM (SP-Flag-MRGX4-GFP10-1D4, log [agonist] (M) -4.69897, read-out: normalized IP1 accumulation): 74%
activation at 4 µM (SP-Flag-MRGX4-GFP10-1D4, log [agonist] (M) -5.39794, read-out: normalized IP1 accumulation): 34.7%
activation at 0.8 µM (SP-Flag-MRGX4-GFP10-1D4, log [agonist] (M) -6.09691, read-out: normalized IP1 accumulation): 13.4%
activation at […] (SP-Flag-MRGX4-GFP10-1D4, log [agonist] (M) -6.79588, read-out: normalized IP1 accumulation): 8.46%
activation at 0.032 µM (SP-Flag-MRGX4-GFP10-1D4, log [agonist] (M) -7.49485, read-out: normalized IP1 accumulation): 8.07%
activation at 3.7037 µM (log [agonist] (M) -5.43136, MRGX4-transfected, individual replicates, read-out: IP1 accumulation, dose-response (Figure 1a)): 40%
activation at 0.4115 µM (log [agonist] (M) -6.38561, MRGX4-transfected, individual replicates, read-out: IP1 accumulation, dose-response (Figure 1a)): 19.1%
activation at 100 µM (log [nateglinide] (M) -4, Dox 13 ng/mL, Supplementary Figure 5a, read-out: IP1 accumulation (normalized)): 79.6%
activation at 100 µM (log [nateglinide] (M) -4, Dox 13 ng/mL, Supplementary Figure 5b, read-out: IP1 accumulation (normalized)): 13.6%
activation at 100 µM (log [nateglinide] (M) -4, Dox 13 ng/mL, Supplementary Figure 5c, read-out: IP1 accumulation (normalized)): 46.6%
activation at 100 µM (log [nateglinide] (M) -4, Dox 40 ng/mL, Supplementary Figure 5a, read-out: IP1 accumulation (normalized)): 82.2%
